Experimental data: patent US5151414A, “Phenoxyethyl amine compounds active on the cardiovascular system” (SIMES Societa Italiana Medicinali e Sintetici S.p.A., priority 1987, dated 1992)

What was measured:
[1] = target: dopaminergic receptor (isolated membranes of rat striated muscle); experiment: receptor binding test, dopaminergic "in vitro" receptor affinity on isolated membranes of rat striated muscle
Excerpt: (§1) Furthermore, the compounds of formula I show a remarkable dopaminergic activity in addition to an α1 -antagonistic effect. The dopaminergic activity has been evaluated by receptor binding tests as "in vitro" receptor affinity on isolated membranes of rat striated muscle and by pharmacological tests as "in vitro" inhibition of the answer to electric stimulation of cat right atrium.

[2] = tested on: dopaminergic activity, cat right atrium; experiment: "in vitro" inhibition of the answer to electric stimulation of cat right atrium (dopaminergic activity); assay type: biochemical
Excerpt: as §1

[3] = target: α1 receptor (rat cerebral cortex); experiment: α1 receptor binding on rat cerebral cortex
Excerpt: (§2) The α1 -antagonistic activity has been evaluated as receptor binding on rat cerebral cortex and as antagonism to contraction induced by phenylephrine (α1 -agonist) on rabbit aorta.

[4] = tested on: α1 (rabbit aorta); experiment: antagonism to contraction induced by phenylephrine (α1-agonist) on rabbit aorta; assay type: biochemical
Excerpt: as §2

[5] = effects on systemic arterial pressure, heart rate and vascular resistances in anesthetized dog, intravenous route; assay type: in vivo
Procedure: In fact, the compounds object of the present invention reduce meaningfully systemic arterial pressure after administration by intravenous route in anesthetized dog (see example 11). The compound N-[2-(2,6-dichlorophenoxy)-ethyl]-N-propyl-2-amino-5,6-dihydroxy-1,2,3,4-tetrahydronaphthalene hydrochloride (Compound A) was tested by intravenous route in anesthetized dog in order to evaluate the effects on systemic arterial pressure. Compound A, administered by intravenous route at the doses of 10 and 20 μg/kg, reduced systemic arterial pressure as well as peripheral resistances and particularly femoral resistances, the last reduction being associated also with an increase of the corresponding haematic flow.

In the case of CCCN(CCOc1c(Cl)cccc1Cl)C1CCc2c(ccc(O)c2O)C1.Cl (stereo not drawn) [Compound A, N-[2-(2,6-dichlorophenoxy)-ethyl]-N-propyl-2-amino-5,6-dihydroxy-1,2,3,4-tetrahydronaphthalene hydrochloride], the IC50 [1] is reported as 251 nM, the IC50 [2] is reported as 8500 nM and the IC50 [3] is reported as 76 nM. The “pA2 (rabbit aorta)” value [4] was 7.42, the Renal resistances ([5]; 10 μg/kg iv, basal 1.007 + 0.186) was 0.871 ± 0.162 mmHg/ml/min and the Femoral resistances ([5]; 10 μg/kg iv, basal 2.471 + 0.260) was 1.802 ± 0.471 mmHg/ml/min. For the same molecule, the a. femoral flow ([5]; 10 μg/kg iv, basal 54.1 + 3.8) was 67.4 ± 12.4 mL/min, the “Arterial pressure Mn” value ([5]; 10 μg/kg iv, basal 118 + 5) was 102 ± 8 mmHg and the “Arterial pressure Md” value ([5]; 10 μg/kg iv, basal 136 + 4) was 119 ± 7 mmHg. The a. renal flow ([5]; 10 μg/kg iv, basal 143.7 + 23.7) was 144.7 ± 20.6 mL/min, the Heart rate ([5]; 10 μg/kg iv, basal 152 + 11) was 161 ± 12 beats/min and the “Arterial pressure Mx” value ([5]; 10 μg/kg iv, basal 160 + 10) was 145 ± 8 mmHg. The Renal resistances ([5]; 20 μg/kg iv, basal 1.246 + 0.389) was 1.082 ± 0.367 mmHg/ml/min, the Femoral resistances ([5]; 20 μg/kg iv, basal 2.445 + 0.787) was 1.274 ± 0.171 mmHg/ml/min and the a. femoral flow ([5]; 20 μg/kg iv, basal 65.6 + 20.0) was 87.8 ± 20.0 mL/min. For the same molecule, the “Arterial pressure Mn” value ([5]; 20 μg/kg iv, basal 118 + 9) was 96 ± 11 mmHg, the a. renal flow ([5]; 20 μg/kg iv, basal 129.9 + 31.8) was 128.9 ± 31.3 mL/min and the “Arterial pressure Md” value ([5]; 20 μg/kg iv, basal 132 + 8) was 109 ± 9 mmHg. For the same molecule, the Heart rate ([5]; 20 μg/kg iv, basal 136 + 13) was 146 ± 17 beats/min, the “Arterial pressure Mx” value ([5]; 20 μg/kg iv, basal 148 + 8) was 124 ± 9 mmHg and the “femoral resistances (in words)” value ([5]; intravenous, 10 and 20 μg/kg) was “reduced”. The “haematic flow, femoral (in words)” value ([5]; intravenous, 10 and 20 μg/kg) was “increase”, the “peripheral resistances (in words)” value ([5]; intravenous, 10 and 20 μg/kg) was “reduced” and the “systemic arterial pressure (in words)” value ([5]; intravenous, 10 and 20 μg/kg) was “reduced”.
